Measurements as given in patent publication US7534606B2, “Placental stem cell and methods thereof” (National Health Research Institutes, priority 2004, dated 2009).
Where two headings read alike, the source gives them in different places.

What was measured:
[1] = system: human marrow stromal cells; conditions: Deng et al. 2001; cited from earlier work
[2] = system: placental stem cells; format: cell-based
Method: Immunocytochemistry and immunofluorescence and RT-PCR. Cultured cells were fixed with 4% paraformaldehyde for 5 minutes at room temperature and permeabilized with 0.1% Triton-X 100 for 20 minutes. Slides were then incubated sequentially with primary antibody overnight at 4° C. For immunocytochemistry, primary antibodies against NSE (Sigma) (1:25) was applied, followed by biotinylated anti-rabbit antibody and an avidin-biotin conjugate of hourseradish peroxidase (Vector Laboratories, Burlingame, Calif., USA). For immunofluorescence staining, primary antibodies against NeuN (Chemicon International Inc., Temecula, Calif., USA) (1:100), Nestin (BD Biosciences) (1:100), GFAP (glial fibrillary acidic protein, Chemicon International Inc.) (1:100), MAP2 (microtubule-associated protein 2, Chemicon International Inc.) (1:200), and NG2 (Chemicon International Inc.) (1:50) were used. Cy3 or fluorescein-labeled secondary antibodies were then applied for 1 hour at 37° C., and stained with 4′, 6-diamino-2-phenylindole (DAPI) (KPL Inc. Gaithersburg, Mass., USA) to identify cell nuclei. Cells were visualized by confocal fluorescence microscopy (Zeiss, LSM 510).
For RT-PCR, total RNA was isolated from cultured cells using Purescript (Gentra System, Minneapolis, Minn., USA), and 2 μg of total RNA was used for reverse transcription using Superscript II (Invitrogen, Carlsbad, Calif., USA). The cDNA was synthesized using Taq Platinum (Invitrogen) and 0.025 μg/μl oligo(dT). An equal volume of each sample was used to amplify human genes with 1 μM of each of the following primers: for the human nestin gene 5′-CCC TGA CCA CTC CAG TTT A-3′ and 5′-GAG TCC TGG ATT TCCTTC-3′; for the human Oct-4 gene 5′-GTGAAGCTGGAGAAGGAGAAGCTG-3′ and 5′-CAAGGGCCGCAGCTTACACATG-3′; and for the neurofilament light-chain (NF-L) gene 5′-CCC GAC TCA GTT TCA CC-3′ and 5′-CAG CCT TAG ACG CCT C-3′. Human glyceraldehyde-3-phosphate dehydrogenase (GAPDH) primers (Clontech, Palo Alto, Calif., USA) were used as internal controls for the PCR reactions. The cDNA from each sample was amplified for 30 cycles (1 min at 94° C., 1 min at 65° C., and 1 min at 72° C.). The PCR products were then separated by electrophoresis on 1.5% agarose gels. The sequence of each PCR product was confirmed using automatic sequencing.
Placental stem cells obtained according to Example 1 were plated on 35 mm culture dishes without coating, or if coated, with fibronectin, gelatin, or poly-L-Lysine (Sigma). Cells were cultured in serum-free DMEM-LG (Gibco) at various densities and exposed to either 10 ng/ml basic fibroblastic growth factor (b-FGF)/20 ng/ml epidermal growth factor (EGF) (both from R&D), retinoic acid (RA) (Sigma) at 10^−6M, β-mercaptoethanol/dimethysulfoxide/butylated hydroxyanisole (1×10^−5M βME/2% DMSO/100 μM BHA) (Sigma), or 0.5 mM 1-methyl-3-isobutylxanthine (IBMX, Sigma) for 3 to 6 days. Cells were then harvested for RT-PCR and immunocytochemical analysis as described above.
Differentiation to neural-like cells was quantified as a percentage of the total number of […] stem cells grown under differentiation conditions. Cells were stained for NSE expression and analyzed under an invert microscope. Five non-overlapping low power images were captured from each sample. […] Total cell count was determined by staining with 4′,6-diamidino-2-phenylindole (DAPI), which stains nuclei specifically, or with anti-human nuclei antibody (1:50) (Chemicon International Inc.).

[3] = system: placental stem cells; format: cell-based; conditions: after 24 hours of treatment; three independent experiments
[4] = IBMX-treated cultures, immunofluorescence

SMILES	expression of GFAP [1]	expression of NSE [1]	morphological changes (cytoplasm retracted, extensions) ([2]; 3 to 6 days in medium, RA 10^−6M, IBMX 0.5 mM, compared with expansion medium)	NSE expression compared with control cells ([2]; 3 to 6 days in medium, immunocytochemical staining)	astrocytes (GFAP) of the total cell count [2, 4]	neurons (MAP2) of the total cell count [2, 4]	oligodendrocytes (NG2) of the total cell count [2, 4]	placental stem cells differentiated ([2]; after 5 days of treatment, three independent experiments)	expression of neural filament light chain (NF-L) by RT-PCR ([2]; after five days of treatment)	dose dependence of induced differentiation ([2]; data not shown)	effect of removal from the culture medium ([2]; data not shown)	time to first morphological changes ([2]; in a portion of placental stem cells)	placental stem cells differentiated [3]	differentiation into neural-like cells ([2]; after 6 days of incubation, RA 10^−6M, IBMX 0.5 mM, retracted cell bodies and positive NSE staining, % of total cells)
CC(C)Cn1c(=O)n(C)c(=O)c2[nH]cnc21 [IBMX, 1-methyl-3-isobutylxanthine]	no expression of GFAP	increased expression of NSE	morphological changes	higher levels of NSE	~1%	approximately 16%	~17%	more than 40%	detected	dose-dependent effect	reversion of the cells to their original phenotype	2 hours	7%	
CC1=C(/C=C/C(C)=C/C=C/C(C)=C/C(=O)O)C(C)(C)CCC1 [RA, retinoic acid]														about 10%
